Data on three compounds can be found in patent US20220211718A1, “BCL-2 INHIBITORS FOR USE IN THE TREATMENT OF A BCL-2 MEDIATED CANCER CARRYING THE GLY101VAL MUTATION” (LES LABORATOIRES SERVIER, priority 2019, published 2022).

Test [1] relates to KMS-12-PE Bcl-2 D103Y cells. Put plainly: In vitro cytotoxicity, CellTiter-Glo cell viability 72 h, Example 5. Format: cell-based. Particulars: Homo sapiens, read-out: KMS-12-PE Bcl-2 D103Y C50. The method, then:
Cell lines were grown at 37° C. in a humidified atmosphere with 5% CO2 in media recommended by the suppliers. KMS-12-PE (ACC 606) from the Leibniz-Institute DSMZ (Braunschweig, Germany). Lentiviral particles containing Bcl-2 mutated on D103Y were cloned into pcLV-CMV-DEST-IRES-TagRFP. Lentiviral particles (1×10^6) were mixed with Polybrene at 8 μg/ml and transduced by spinoculation for 1 h at 32° C. and incubated overnight. TagRFP positive-KMS-12-PE cells were sorted by FACS after 8 days. Bcl-2 expression was monitored by immunoblotting using anti-Flag and anti-Bcl-2 antibodies. Cells were seeded into 96-well plates and treated at 9 points with 1:3.16 serial dilution of compounds. […] Results were normalized to the viability of cells without compounds (control wells). The C50 values were calculated using nonlinear Regression algorithms in XCell software.
(In general: ATP-based viability assays read luminescence as a measure of living cells.)

For another test, the system named is RS4;11 Bcl-2 G101V cells. As to the kind of experiment: In vitro cytotoxicity, CellTiter-Glo cell viability 72 h. The following applies: Homo sapiens, read-out: RS4;11 Bcl-2 G101V C50. Format: cell-based. The method, then:
(§1) Cell lines were grown at 37° C. in a humidified atmosphere with 5% CO2 in media recommended by the suppliers. RS4;11 (ATCC® CRL1873™) were purchased from American Type Culture Collection (ATCC) and KMS-12-PE (ACC 606) from the Leibniz-Institute DSMZ (Braunschweig, Germany). Lentiviral particles containing Bcl-2 wild-type (also named ‘Bcl-2 VT’) and Bcl-2 mutated on G101V (also named ‘Bcl-2 G101V’) were cloned into pcLV-CMV-DEST-IRES-TagRFP. Lentiviral particles (1×10^6) were mixed with Polybrene at 8 μg/ml and transduced by spinoculation for 1 h at 32° C. and incubated overnight. After 8 days for KMS-12-PE and 21 days for RS4;11, TagRFP positive-cells were sorted by FACS. BCL2 expression was monitored by immunoblotting using anti-Flag and anti-BCL2 antibodies. Cells were seeded into 96-well plates and treated with 1:3.16 serial dilution of compounds (9 different concentrations). […] Results were normalized to the viability of cells without compounds (control wells). The C50 values were calculated using nonlinear regression algorithms in XCell software.

A further test relates to RS4;11 Bcl-2 WT cells. The description is as above. The format is cell-based. Particulars: Homo sapiens, read-out: RS4;11 Bcl-2 WT C50. The procedure:
as §1

Test [2] concerns KMS-12-PE Bcl-2 G101V cells. The description is as above. Particulars: Homo sapiens, read-out: KMS-12-PE Bcl-2 G101V C50. The format is cell-based. The method, then: as §1
The test system of another test is KMS-12-PE Bcl-2 WT cells. The description is as above. The format is cell-based. The following applies: Homo sapiens, read-out: KMS-12-PE Bcl-2 WT C50. The procedure: as §1
The target in a further test is Bcl-2 Asp103Tyr mutant (Homo sapiens, UniProt P10415, D103Y). Put plainly: Fluorescence quenching assay (PUMA quench reagent displacement), Example 4. Particulars: 50 nM peptide, about 2 hours at 18° C., ABT-199 inactive @1 μM. Format: binding. An excerpt: […] […] […] […] […] […] […] […] […] […] […] […] […] […] […] […] […] […] […] […] […] […] […] […] […] […] […]
Sequence of Bcl-2 Asp103Tyr mutant (P10415 with tags, fused parts or gaps D103Y): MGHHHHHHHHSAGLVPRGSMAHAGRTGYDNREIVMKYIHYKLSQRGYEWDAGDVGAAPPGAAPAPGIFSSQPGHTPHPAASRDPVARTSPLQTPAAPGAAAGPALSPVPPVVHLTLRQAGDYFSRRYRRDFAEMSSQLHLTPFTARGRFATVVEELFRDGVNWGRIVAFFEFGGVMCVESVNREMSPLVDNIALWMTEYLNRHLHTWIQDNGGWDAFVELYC

Consider `CC1(C)CCC(CN2CCN(c3ccc(C(=O)NS(=O)(=O)c4ccc(NCC5CCOCC5)c([N+](=O)[O-])c4)c(Oc4cnc5[nH]ccc5c4)c3)CC2)=C(c2ccc(Cl)cc2)C1` [ABT-199, Venetoclax, reference compound], for which the IC50 is 1.83 µM in test [1]; 0.13 µM in the test with RS4;11 Bcl-2 G101V cells; 0.0107 µM with RS4;11 Bcl-2 WT cells; 0.931 µM in test [2]; 0.0225 µM in the test with KMS-12-PE Bcl-2 WT cells. Moreover, the “Bel-2 Asp103Tyr mutant K1 mean” value on Bcl-2 Asp103Tyr mutant was “inactive”.
In the case of `O=C(c1cc(-c2cc3c(cc2C(=O)N2Cc4ccccc4C[C@H]2CN2CCOCC2)OCO3)n2c1CCCC2)N(c1ccccc1)c1ccc(O)cc1` [Compound A, N-(4-hydroxyphenyl)-3-{6-[((3S)-3-(4-morpholinylmethyl)-3,4-dihydro-2(1H)-isoquinolinyl)carbonyl]-1,3-benzodioxol-5-yl}-N-phenyl-5,6,7,8-tetrahydro-1-indolizine carboxamide], the IC50 came to 0.495 µM in the test on RS4;11 Bcl-2 G101V cells, 0.0823 µM with RS4;11 Bcl-2 WT cells, 0.961 µM in test [2] and 0.0573 µM in the test with KMS-12-PE Bcl-2 WT cells.
In the case of `Cc1c(N(C(=O)c2cc(-c3cc(Cl)ccc3C(=O)N3Cc4ccccc4C[C@H]3CN3CCOCC3)n(C)c2C)c2ccc(O)cc2)cc(C#N)n1C` [Compound B, 5-(5-chloro-2-{[(3S)-3-(morpholin-4-ylmethyl)-3,4-dihydroisoquinolin-2(1H)-yl]carbonyl}phenyl)-N-(5-cyano-1,2-dimethyl-1H-pyrrol-3-yl)-N-(4-hydroxyphenyl)-1,2-dimethyl-1H-pyrrole-3-carboxamide], the IC50 in test [1] is 0.0837 µM; in the test on RS4;11 Bcl-2 G101V cells it was 0.0604 µM; with RS4;11 Bcl-2 WT cells, 0.00903 µM; in test [2], 0.179 µM; in the test on KMS-12-PE Bcl-2 WT cells, 0.021 µM.
